The source made the active and inactive calls. The rule behind the calls is not given here.
Legend:
[1] = Dark toxicity against mouse NIH/3T3 cells assessed as cell viability after 48 hrs by MTT assay; type: cell-based, NIH3T3
[2] = Cytotoxicity against human HL60/ADR cells after 48 hrs by MTT assay; type: functional, cell-based
L1210 [3] = assay: Induction of apoptosis in mouse L1210 cells assessed as late apoptotic cells at 0.5 uM preincubated for 1 hr followed by 1.05 J/cm2 UV-A irradiation measured after 24 hrs by Hoechst 33342 and propidium iodide staining-based fluorescence microscopy; type: functional, cell-based
Calf thymus DNA = assay: Binding affinity to calf thymus DNA by UV-visible spectrophotometry; type: nucleic-acid assay; details: Bos taurus
L1210 [4] = assay: Induction of cell cycle arrest in mouse L1210 cells assessed as accumulation at sub-G0 phase at 1 uM preincubated for 1 hr followed by 1.05 J/cm2 UV-A irradiation measured after 4 hrs by propidium iodide staining-based flow cytometry (reference value: 16.8 +/- 0.6%); type: functional
[5] = Induction of ROS generation measured 2 mins after UV-A irradiation by spin trapping agent DMPO based EPR spectroscopy; type: physicochemical
L1210 [6] = assay: Induction of apoptosis in mouse L1210 cells assessed as caspase 3 activation at 0.5 to 1 uM preincubated for 1 hr followed by 1.05 J/cm2 UV-A irradiation measured after 4 to 6 hrs by Western blot method; type: functional, cell-based
L1210 [7] = assay: Induction of cell cycle arrest in mouse L1210 cells assessed as accumulation at sub-G0 phase at 1 uM preincubated for 1 hr measured after 4 hrs by propidium iodide staining-based flow cytometry in absence of light (reference value: 16.6 +/- 0.4%); details: l1210, 4 h
L1210 [8] = assay: Phototoxicity in mouse L1210 cells at 1 uM preincubated for 1 hr followed by 1.05 J/cm2 UV-A irradiation measured after 24 hrs by lactate dehydrogenase leakage assay; type: functional, cell-based
L1210 [9] = assay: Phototoxicity against mouse L1210 cells assessed as cell viability preincubated for 1 hr followed by 1.05 J/cm2 UV-A irradiation measured after 48 hrs by MTT assay in presence of pepstatin A; type: functional, cell-based
[10] = Drug uptake in mitochondria of mouse L1210 cells at 2 uM preincubated for 1 hr followed by 1.05 J/cm2 UV-A irradiation by MitoRed staining-based flow cytometry; type: ADME; details: l1210, 2 µM
[11] = Drug uptake in nucleus of mouse L1210 cells at 2 uM preincubated for 1 hr followed by 1.05 J/cm2 UV-A irradiation by SytoRed staining-based flow cytometry; type: ADME, cell-based; details: l1210, 2 µM
L1210 [12] = assay: Phototoxicity against mouse L1210 cells assessed as cell viability preincubated with 10 nM chloroquine followed by compound exposure for 1 hr followed by 1.05 J/cm2 UV-A irradiation measured after 48 hrs by MTT assay in presence of pepstatin A; type: functional, cell-based
L1210 [13] = assay: Induction of cell cycle arrest in mouse L1210 cells assessed as accumulation at sub-G0 phase at 1 uM preincubated for 1 hr measured after 24 hrs by propidium iodide staining-based flow cytometry in absence of light (reference value: 16.6 +/- 0.4%); details: l1210, 24 h
L1210 [14] = assay: Decrease in ATP level in mouse L1210 cells at 0.5 uM preincubated for 1 hr followed by 1.05 J/cm2 UV-A irradiation measured after 6 hrs by luciferase reporter assay; type: functional; parameters: scale not given: the % may be the effect or the level left
L1210 [15] = assay: Induction of apoptosis in mouse L1210 cells at 0.5 uM preincubated for 1 hr followed by 1.05 J/cm2 UV-A irradiation measured after 5 hrs by Annexin Red based flow cytometry; type: functional
[16] = Dark toxicity against mouse L1210 cells assessed as cell viability after 48 hrs by MTT assay; type: cell-based
[17] = Cytotoxicity against human HL60 cells after 48 hrs by MTT assay; type: functional, cell-based; details: HL-60, 48 h
L1210 [18] = assay: Drug uptake in mouse L1210 cells at 1 uM after 15 mins to 6 hrs by fluorescence microscopy; type: ADME, cell-based; details: l1210, 1 µM
[19] = Drug uptake in lysosome of mouse L1210 cells at 2 uM preincubated for 1 hr followed by 1.05 J/cm2 UV-A irradiation by LysoTracker staining-based flow cytometry; type: ADME, cell-based; details: l1210, 2 µM
L1210 [20] = assay: Phototoxicity against mouse L1210 cells assessed as cell viability preincubated for 1 hr followed by 1.05 J/cm2 UV-A irradiation measured after 48 hrs by MTT assay in presence of 3-methyladenine; type: functional, cell-based
L1210 [21] = assay: Induction of cell cycle arrest in mouse L1210 cells assessed as accumulation at sub-G0 phase at 1 uM preincubated for 1 hr followed by 1.05 J/cm2 UV-A irradiation measured after 24 hrs by propidium iodide staining-based flow cytometry (reference value: 16.8 +/- 0.6%); type: functional
L1210 [22] = assay: Induction of apoptosis in mouse L1210 cells assessed as caspase 3 activation at 0.5 uM preincubated for 1 hr measured after 8 hrs by Western blot method in absence of light; type: cell-based; details: l1210, 8 h
L1210 [23] = assay: Phototoxicity in mouse L1210 cells at 0.5 uM preincubated for 1 hr followed by 1.05 J/cm2 UV-A irradiation measured after 6 hrs by lactate dehydrogenase leakage assay; type: functional, cell-based
L1210 [24] = assay: Induction of apoptosis in mouse L1210 cells assessed as Bax level at 0.5 uM preincubated for 1 hr measured after 8 hrs by Western blot method in absence of light; type: cell-based; details: l1210, 8 h
L1210 [25] = assay: Induction of autophagy in mouse L1210 cells assessed as accumulation of LC3BII at 0.5 uM preincubated for 1 hr measured after 8 hrs by Western blot method in absence of light; type: cell-based; details: l1210, 8 h
L1210 [26] = assay: Induction of cell cycle arrest in mouse L1210 cells assessed as accumulation at sub-G0 phase at 0.5 uM preincubated for 1 hr measured after 24 hrs by propidium iodide staining-based flow cytometry in absence of light (reference value: 16.6 +/- 0.4%); details: l1210, 24 h

K (Calf thymus DNA): 6.8 ×10⁵ /M
Activity [5]: Active
Activity (L1210 [7]): 17.2%
Drug uptake [10]: 53%
Drug uptake [11]: Active
Activity (L1210 [13]): 21.1%
Drug uptake (L1210 [18]): Active
Drug uptake [19]: Active
Activity (L1210 [26]): 25.9%
Compound: CCCNC(=S)Nc1ccc2cc3ccc(NC(=S)NCCC)cc3nc2c1.Cl
IC50 at 48 h [1]: 43.5 µM
IC50 [2]: 7.2 µM
Activity (L1210 [3]): Active
Activity (L1210 [4]): 32.5%
Activity (L1210 [6]): inactive
Activity (L1210 [8]): Active
Activity (L1210 [9]): inactive
Activity (L1210 [12]): inactive
Activity (L1210 [14]): 30%
Activity (L1210 [15]): 24%
IC50 at 48 h [16]: 5.7 µM
IC50 [17]: 7.2 µM
Activity (L1210 [20]): inactive
Activity (L1210 [21]): 47.9%
Activity (L1210 [22]): Non-toxic
Activity (L1210 [23]): inactive
Activity (L1210 [24]): Non-toxic
Activity (L1210 [25]): Non-toxic
